Assay results from patent CN101016265A, “一种新型hiv-1逆转录酶抑制剂的制备及其用途” (Capital Medical University, priority 2007, dated 2007).

molecular target: T1, HIV-1 reverse transcriptase (HIV-1逆转录酶) (Human immunodeficiency virus type 1 group M subtype B, UniProt P03366); assay: HIV-1 RT activity assay (oligo(dT)15-coated 96-well plate, poly(A) template, biotin-11-dUTP / SA-ALP / PNPP, 405 nm); type: biochemical; details: relative to nevirapine (NVP); range stated for the six compounds together
T1 construct: HIV-1逆转录酶HIV-1 RT为基因工程重组酶

Compound	activity higher than that of nevirapine (NVP)
CCOCn1c(Cc2ccccc2)c(I)c(=O)[nH]c1=O [化合物8, 1-乙氧甲基-5-碘-6-苄基尿嘧啶]	3.6-627 fold
CCOCn1c(Cc2ccccc2)c(Br)c(=O)[nH]c1=O [化合物9, 1-乙氧甲基-5-溴-6-苄基尿嘧啶]	3.6-627 fold
CCOCn1c(Cc2ccccc2)c(N(C)C)c(=O)[nH]c1=O [化合物10, 1-乙氧甲基-5-N,N-二甲基氨基-6-苄基尿嘧啶]	3.6-627 fold
O=c1[nH]c(=O)n(COCc2ccccc2)c(Cc2ccccc2)c1Br [化合物6, 1-苄氧甲基-5-溴-6-苄基尿嘧啶]	3.6-627 fold
O=c1[nH]c(=O)n(COCc2ccccc2)c(Cc2ccccc2)c1I [化合物5, 1-苄氧甲基-5-碘-6-苄基尿嘧啶]	3.6-627 fold
CN(C)c1c(Cc2ccccc2)n(COCc2ccccc2)c(=O)[nH]c1=O [化合物7, 1-苄氧甲基-5-N,N-二甲基氨基-6-苄基尿嘧啶]	3.6-627 fold
